Assay results reported in ChEMBL document CHEMBL1156029, “The discovery of thienopyridine analogues as potent IkappaB kinase beta inhibitors. Part II” (Bioorg Med Chem Lett, 2009).
The source made the active and inactive calls. The rule behind the calls is not given here.

Experiments:
[1] = target: Fibroblast growth factor receptor 3 (Homo sapiens, UniProt P22607); assay: Inhibition of FGFR3
[2] = target: Insulin-like growth factor 1 receptor (Homo sapiens, UniProt P08069); assay: Inhibition of IGF1R
Insulin receptor = Insulin receptor (Homo sapiens, UniProt P06213); assay: Inhibition of IR
[3] = target: Vascular endothelial growth factor receptor 1 (Homo sapiens, UniProt P17948); assay: Inhibition of VEGFR1
HeLa = assay: Inhibition of TNF-alpha-induced NF-kappaB transfected in human HeLa cells preincubated for 30 mins before TNFalpha challenge after 6 hrs by luciferase reporter gene assay; assay type: cell-based
Blood = assay: Inhibition of LPS-induced TNFalpha production in human whole blood; assay type: functional, tissue-based
[4] = target: T1, Inhibitor of nuclear factor kappa-B kinase subunit alpha (Homo sapiens, UniProt O15111); assay: Inhibition of IKKalpha
T1 sequence (O15111 whole entry): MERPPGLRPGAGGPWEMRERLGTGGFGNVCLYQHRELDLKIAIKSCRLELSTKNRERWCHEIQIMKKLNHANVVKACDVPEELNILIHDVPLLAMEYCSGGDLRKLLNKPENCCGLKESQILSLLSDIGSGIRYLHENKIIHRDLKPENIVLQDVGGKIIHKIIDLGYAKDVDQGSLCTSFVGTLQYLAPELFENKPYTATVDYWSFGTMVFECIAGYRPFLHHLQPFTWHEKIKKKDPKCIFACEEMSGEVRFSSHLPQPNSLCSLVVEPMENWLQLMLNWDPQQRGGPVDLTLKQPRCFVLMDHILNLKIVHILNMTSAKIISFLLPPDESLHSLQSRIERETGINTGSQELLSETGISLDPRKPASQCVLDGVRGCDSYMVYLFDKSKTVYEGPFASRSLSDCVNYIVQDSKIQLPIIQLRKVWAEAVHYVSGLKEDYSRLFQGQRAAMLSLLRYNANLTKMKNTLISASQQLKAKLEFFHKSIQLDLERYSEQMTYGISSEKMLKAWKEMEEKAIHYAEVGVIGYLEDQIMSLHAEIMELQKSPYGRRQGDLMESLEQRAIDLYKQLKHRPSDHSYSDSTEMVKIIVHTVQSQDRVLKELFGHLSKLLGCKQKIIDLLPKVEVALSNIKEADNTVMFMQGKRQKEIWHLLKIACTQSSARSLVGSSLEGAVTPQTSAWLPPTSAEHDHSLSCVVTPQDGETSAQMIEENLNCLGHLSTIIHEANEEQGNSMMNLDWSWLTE

[5] = target: Mitogen-activated protein kinase 1 (Homo sapiens) (UniProt P28482); assay: Inhibition of MAPK2/ERK2 at 10 uM
[6] = target: Mitogen-activated protein kinase 11 (Homo sapiens) (UniProt Q15759); assay: Inhibition of p38beta2 at 10 uM
[7] = target: T2, Mitogen-activated protein kinase 13 (Homo sapiens) (UniProt O15264); assay: Inhibition of p38delta at 10 uM
T2 sequence (whole entry): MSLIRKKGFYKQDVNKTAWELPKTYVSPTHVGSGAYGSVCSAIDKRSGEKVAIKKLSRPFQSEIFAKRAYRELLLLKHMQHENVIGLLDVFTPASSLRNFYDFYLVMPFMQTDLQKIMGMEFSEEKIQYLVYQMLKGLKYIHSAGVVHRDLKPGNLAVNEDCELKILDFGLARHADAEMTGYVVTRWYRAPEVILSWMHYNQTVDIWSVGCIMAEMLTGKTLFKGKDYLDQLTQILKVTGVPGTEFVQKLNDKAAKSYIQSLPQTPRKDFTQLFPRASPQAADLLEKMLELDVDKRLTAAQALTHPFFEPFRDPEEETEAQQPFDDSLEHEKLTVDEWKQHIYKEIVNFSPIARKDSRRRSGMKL

[8] = target: MAP kinase-activated protein kinase 2 (Homo sapiens) (UniProt P49137); assay: Inhibition of MAPKAP-K2 at 10 uM
[9] = target: T3, Serine/threonine-protein kinase Sgk1 (Homo sapiens) (UniProt O00141); assay: Inhibition of SGK at 10 uM
T3 sequence (whole entry): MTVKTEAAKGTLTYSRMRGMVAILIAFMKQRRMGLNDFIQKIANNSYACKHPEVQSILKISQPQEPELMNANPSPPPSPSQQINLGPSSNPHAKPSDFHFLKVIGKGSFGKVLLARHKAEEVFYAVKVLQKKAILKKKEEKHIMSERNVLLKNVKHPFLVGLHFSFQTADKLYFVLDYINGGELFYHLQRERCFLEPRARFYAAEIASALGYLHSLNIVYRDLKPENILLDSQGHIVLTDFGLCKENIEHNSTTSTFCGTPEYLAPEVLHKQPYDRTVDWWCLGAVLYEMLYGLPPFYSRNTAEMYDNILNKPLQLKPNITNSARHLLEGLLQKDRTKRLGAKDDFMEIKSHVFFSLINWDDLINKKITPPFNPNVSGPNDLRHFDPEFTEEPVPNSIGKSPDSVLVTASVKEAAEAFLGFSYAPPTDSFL

[10] = target: Rho-associated protein kinase 2 (Homo sapiens) (UniProt O75116); assay: Inhibition of ROCK-2 at 10 uM
[11] = target: T4, Serine/threonine-protein kinase Chk1 (Homo sapiens) (UniProt O14757); assay: Inhibition of CHK1 at 10 uM
T4 sequence (whole entry): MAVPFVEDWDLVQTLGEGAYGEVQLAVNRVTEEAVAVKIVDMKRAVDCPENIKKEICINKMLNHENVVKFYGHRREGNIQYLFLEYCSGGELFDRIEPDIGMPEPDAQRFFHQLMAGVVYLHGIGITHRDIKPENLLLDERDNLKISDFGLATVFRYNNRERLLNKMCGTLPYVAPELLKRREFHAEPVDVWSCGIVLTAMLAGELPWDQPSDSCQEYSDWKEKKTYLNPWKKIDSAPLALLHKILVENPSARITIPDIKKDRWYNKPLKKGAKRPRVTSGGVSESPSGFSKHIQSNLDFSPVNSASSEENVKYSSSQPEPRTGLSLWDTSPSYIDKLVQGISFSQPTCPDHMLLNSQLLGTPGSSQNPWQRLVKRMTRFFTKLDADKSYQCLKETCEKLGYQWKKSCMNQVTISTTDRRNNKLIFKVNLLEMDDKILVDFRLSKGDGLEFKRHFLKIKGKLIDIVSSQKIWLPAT

[12] = Inhibition of CK2 at 10 uM
[13] = Inhibition of PHOS Kinase at 10 uM
[14] = target: Tyrosine-protein kinase CSK (Homo sapiens) (UniProt P41240); assay: Inhibition of CSK at 10 uM
[15] = target: Cyclin-dependent kinase 2/cyclin A (Homo sapiens) (UniProt P24941+P20248+P78396); assay: Inhibition of CDK2/cyclin A at 10 uM; assay type: protein-complex assay
[16] = target: Casein kinase I isoform alpha (Homo sapiens) (UniProt P48729); assay: Inhibition of CK1 at 10 uM
Ephrin type-A receptor 2 = Ephrin type-A receptor 2 (Homo sapiens, UniProt P29317); assay: Inhibition of Eck
[17] = target: Tyrosine-protein kinase SYK (Homo sapiens, UniProt P43405); assay: Inhibition of Syk

Sequence of Casein kinase I isoform alpha (Homo sapiens) (P48729 2-337 limits assumed): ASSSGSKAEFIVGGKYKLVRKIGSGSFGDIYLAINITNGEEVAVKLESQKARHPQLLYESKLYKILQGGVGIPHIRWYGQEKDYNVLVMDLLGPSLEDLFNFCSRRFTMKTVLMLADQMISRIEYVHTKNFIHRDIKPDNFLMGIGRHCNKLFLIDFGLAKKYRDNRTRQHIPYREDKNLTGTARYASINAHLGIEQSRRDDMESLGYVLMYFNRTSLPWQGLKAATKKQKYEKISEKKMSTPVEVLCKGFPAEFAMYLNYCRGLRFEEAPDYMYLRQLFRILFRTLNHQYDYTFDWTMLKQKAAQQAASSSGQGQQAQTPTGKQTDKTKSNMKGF
Sequence of Mitogen-activated protein kinase 11 (Homo sapiens) (Q15759 whole entry): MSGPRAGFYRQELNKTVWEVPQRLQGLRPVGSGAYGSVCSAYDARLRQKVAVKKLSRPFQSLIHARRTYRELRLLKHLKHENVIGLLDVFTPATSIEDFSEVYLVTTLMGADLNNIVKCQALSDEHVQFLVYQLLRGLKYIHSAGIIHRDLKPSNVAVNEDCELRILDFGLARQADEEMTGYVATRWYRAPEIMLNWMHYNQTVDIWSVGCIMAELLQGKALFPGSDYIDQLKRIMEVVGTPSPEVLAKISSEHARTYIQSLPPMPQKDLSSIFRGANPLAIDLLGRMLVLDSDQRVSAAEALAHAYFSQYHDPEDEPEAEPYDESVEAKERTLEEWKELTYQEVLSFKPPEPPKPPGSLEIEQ
Sequence of MAP kinase-activated protein kinase 2 (Homo sapiens) (P49137 whole entry, looked up): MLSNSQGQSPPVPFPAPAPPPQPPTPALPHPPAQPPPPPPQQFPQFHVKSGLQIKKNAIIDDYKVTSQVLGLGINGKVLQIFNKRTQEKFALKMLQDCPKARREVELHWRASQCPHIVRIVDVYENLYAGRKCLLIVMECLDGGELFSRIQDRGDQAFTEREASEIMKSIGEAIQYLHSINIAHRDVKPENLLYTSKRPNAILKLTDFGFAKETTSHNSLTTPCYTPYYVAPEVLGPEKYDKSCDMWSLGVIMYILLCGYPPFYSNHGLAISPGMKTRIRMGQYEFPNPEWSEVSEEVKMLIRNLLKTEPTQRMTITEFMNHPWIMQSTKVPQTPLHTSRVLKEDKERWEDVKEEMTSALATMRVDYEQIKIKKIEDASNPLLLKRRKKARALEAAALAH
Sequence of Vascular endothelial growth factor receptor 1 (P17948 whole entry): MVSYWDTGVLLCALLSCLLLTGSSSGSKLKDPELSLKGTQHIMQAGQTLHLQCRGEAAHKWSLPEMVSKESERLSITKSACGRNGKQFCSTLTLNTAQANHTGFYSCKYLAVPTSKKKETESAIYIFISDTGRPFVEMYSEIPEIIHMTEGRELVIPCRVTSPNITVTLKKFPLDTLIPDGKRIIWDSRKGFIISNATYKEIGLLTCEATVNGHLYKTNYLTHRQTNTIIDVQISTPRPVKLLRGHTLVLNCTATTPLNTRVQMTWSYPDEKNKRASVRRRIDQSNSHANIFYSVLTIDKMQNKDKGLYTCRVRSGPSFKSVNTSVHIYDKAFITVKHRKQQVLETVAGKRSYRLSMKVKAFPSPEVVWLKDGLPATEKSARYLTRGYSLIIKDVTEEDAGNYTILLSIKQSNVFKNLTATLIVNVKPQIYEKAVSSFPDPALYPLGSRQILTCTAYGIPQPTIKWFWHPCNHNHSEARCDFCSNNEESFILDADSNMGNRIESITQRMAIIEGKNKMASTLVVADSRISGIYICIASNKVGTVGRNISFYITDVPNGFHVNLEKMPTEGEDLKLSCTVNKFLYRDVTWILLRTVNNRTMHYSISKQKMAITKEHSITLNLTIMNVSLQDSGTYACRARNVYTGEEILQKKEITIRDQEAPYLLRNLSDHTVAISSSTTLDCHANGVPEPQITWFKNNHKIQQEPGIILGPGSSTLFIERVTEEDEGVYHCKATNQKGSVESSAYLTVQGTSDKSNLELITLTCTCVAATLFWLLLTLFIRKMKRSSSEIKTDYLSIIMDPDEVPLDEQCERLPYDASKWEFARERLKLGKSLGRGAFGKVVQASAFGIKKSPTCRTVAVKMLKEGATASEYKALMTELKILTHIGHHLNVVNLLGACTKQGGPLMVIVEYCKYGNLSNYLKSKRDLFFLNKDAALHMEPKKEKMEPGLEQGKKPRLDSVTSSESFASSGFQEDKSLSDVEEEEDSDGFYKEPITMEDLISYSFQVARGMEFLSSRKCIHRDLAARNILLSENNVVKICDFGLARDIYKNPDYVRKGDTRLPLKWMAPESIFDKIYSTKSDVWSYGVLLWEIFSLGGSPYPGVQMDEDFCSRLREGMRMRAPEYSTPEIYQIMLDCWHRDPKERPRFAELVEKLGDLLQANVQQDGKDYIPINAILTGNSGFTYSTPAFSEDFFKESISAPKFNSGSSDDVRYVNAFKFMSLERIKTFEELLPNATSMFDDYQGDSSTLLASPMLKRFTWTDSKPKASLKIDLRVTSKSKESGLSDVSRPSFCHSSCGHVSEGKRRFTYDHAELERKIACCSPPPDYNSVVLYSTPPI
Sequence of Insulin receptor (P06213 28-758 limits assumed): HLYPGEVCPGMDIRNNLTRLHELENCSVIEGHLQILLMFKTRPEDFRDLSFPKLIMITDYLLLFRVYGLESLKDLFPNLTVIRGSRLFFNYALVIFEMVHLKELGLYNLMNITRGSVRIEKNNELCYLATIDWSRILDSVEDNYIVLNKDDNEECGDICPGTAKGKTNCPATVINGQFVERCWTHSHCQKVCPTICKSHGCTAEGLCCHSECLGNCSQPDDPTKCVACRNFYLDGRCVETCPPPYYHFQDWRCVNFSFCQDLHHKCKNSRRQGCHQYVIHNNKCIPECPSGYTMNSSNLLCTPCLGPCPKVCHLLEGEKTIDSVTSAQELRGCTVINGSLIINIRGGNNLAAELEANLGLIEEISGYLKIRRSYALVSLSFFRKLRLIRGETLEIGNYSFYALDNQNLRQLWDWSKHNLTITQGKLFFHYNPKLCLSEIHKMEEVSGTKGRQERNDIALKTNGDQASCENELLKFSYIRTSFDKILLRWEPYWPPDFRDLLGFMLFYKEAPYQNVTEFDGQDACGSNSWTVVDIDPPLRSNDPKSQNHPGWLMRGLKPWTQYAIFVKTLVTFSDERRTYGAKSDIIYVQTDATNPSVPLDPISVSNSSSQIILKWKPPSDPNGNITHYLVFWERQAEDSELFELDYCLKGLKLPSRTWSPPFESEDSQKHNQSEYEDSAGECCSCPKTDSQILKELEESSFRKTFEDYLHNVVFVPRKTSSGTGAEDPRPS
Sequence of Insulin receptor (P06213 763-1382 limits assumed): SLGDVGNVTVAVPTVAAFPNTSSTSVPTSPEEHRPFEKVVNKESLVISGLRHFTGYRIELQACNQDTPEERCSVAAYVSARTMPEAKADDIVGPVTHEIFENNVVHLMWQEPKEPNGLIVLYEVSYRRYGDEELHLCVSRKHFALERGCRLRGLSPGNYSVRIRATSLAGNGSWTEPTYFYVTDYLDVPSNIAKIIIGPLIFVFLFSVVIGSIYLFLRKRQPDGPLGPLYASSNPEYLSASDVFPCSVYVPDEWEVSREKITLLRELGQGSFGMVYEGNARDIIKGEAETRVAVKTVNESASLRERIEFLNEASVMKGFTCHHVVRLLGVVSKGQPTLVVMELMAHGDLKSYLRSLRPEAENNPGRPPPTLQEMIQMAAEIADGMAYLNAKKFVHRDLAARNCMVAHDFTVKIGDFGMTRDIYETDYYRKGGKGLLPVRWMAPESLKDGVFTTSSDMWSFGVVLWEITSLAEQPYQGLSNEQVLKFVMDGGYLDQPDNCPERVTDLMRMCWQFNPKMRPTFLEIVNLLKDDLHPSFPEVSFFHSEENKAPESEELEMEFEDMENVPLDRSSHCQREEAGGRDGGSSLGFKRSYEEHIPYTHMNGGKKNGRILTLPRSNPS
Sequence of Fibroblast growth factor receptor 3 (P22607 whole entry): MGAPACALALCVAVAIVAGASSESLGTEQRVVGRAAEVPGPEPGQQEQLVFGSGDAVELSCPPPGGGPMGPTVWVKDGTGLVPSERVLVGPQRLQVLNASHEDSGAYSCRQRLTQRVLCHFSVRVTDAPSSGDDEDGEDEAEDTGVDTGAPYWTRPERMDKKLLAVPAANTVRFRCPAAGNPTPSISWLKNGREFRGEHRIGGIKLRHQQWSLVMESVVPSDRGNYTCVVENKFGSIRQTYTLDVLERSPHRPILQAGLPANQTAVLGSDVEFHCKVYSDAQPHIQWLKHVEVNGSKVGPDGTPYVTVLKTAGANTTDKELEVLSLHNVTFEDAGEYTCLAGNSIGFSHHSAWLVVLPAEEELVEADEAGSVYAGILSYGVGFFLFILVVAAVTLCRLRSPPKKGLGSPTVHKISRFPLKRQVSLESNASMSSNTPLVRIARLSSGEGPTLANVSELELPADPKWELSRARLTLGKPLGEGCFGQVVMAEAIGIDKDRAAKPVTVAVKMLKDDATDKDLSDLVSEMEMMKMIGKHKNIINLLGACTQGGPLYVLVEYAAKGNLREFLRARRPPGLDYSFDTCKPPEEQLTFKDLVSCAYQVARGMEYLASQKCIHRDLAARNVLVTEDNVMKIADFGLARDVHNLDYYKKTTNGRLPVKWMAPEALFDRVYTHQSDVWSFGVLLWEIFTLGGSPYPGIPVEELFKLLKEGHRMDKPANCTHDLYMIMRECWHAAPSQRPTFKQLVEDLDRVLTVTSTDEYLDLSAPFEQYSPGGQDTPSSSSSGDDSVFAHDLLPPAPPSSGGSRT
Sequence of Tyrosine-protein kinase CSK (Homo sapiens) (P41240 2-450 limits assumed): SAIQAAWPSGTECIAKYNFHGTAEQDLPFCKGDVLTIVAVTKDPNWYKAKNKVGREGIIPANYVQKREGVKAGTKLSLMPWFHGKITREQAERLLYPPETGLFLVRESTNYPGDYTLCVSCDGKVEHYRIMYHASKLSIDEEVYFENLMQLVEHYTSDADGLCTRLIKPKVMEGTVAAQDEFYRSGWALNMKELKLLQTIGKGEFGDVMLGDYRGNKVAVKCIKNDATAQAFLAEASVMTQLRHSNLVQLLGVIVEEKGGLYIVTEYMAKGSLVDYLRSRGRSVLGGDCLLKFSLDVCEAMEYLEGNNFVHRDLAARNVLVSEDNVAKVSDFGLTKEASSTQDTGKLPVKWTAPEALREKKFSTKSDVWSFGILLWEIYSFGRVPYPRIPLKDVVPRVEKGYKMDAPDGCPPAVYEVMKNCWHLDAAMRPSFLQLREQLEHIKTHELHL

Row | Structure (SMILES) | IC50 [1] [µM] | IC50 [2] [µM] | IC50 (Insulin receptor) [µM] | IC50 [3] [µM] | IC50 (HeLa) [µM] | IC50 (Blood) [µM] | IC50 [4] [µM] | Activity [5] | Activity [6] | Activity [7] | Activity [8] | Activity [9] | Activity [10] | Activity [11] | Activity [12] | Activity [13] | Activity [14] | Activity [15] | Activity [16] | IC50 (Ephrin type-A receptor 2) [µM] | further results
1 | CCCc1cc(N2CCCC(O)C2)nc2sc(C(N)=O)c(N)c12 (configuration not stated) | > 7 | > 7 | > 7 | > 7 | 6.1 | 13 | 13.3 | inactive | inactive | inactive | inactive | inactive | inactive | inactive | inactive | inactive | inactive | inactive | inactive | > 7 | 
2 | CCCc1cc(N2CCC(N)CC2)nc2sc(C(N)=O)c(N)c12 | > 7 | > 7 | > 7 | > 7 | 1.5 | 1.6 | 0.09 | inactive | inactive | inactive | inactive | inactive | inactive | inactive | inactive | inactive | inactive | inactive | inactive | > 7 | IC50 [17]: > 7 µM
3 | CCCc1cc(N2CCNCC2)nc2sc(C(N)=O)c(N)c12 | > 7 | > 7 |  | > 7 | 7.5 | 3.2 | 3.4 | inactive | inactive | inactive | inactive | inactive | inactive | inactive | inactive | inactive | inactive | inactive | inactive | > 7 | IC50 [17]: > 7 µM
4 | CCCc1cc(N2CCC(O)CC2)nc2sc(C(N)=O)c(N)c12 | > 7 | > 7 | > 7 | > 7 | 5.3 | 9.8 | 11.2 | inactive | inactive | inactive | inactive | inactive | inactive | inactive | inactive | inactive | inactive | inactive | inactive | > 7 | IC50 [17]: > 7 µM
